The text below walks through data of patent publication US9662329B2, “Use of survivin antagonists in polyomavirus-related disease” (University of Pittsburgh—Of the Commonwealth System of …, priority 2012, dated 2017).

Each structure is given as a SMILES string. Read-outs that look alike come from different tables or passages of the source.

The test system of series [1] is MKL-1 cells. Kind of series: Cell cycle analysis (PI and BrdU staining). The format is cell-based, human. The following applies: 12 h, YM155 100 nM, camptothecin 1 μM. The protocol:
MKL-1 cells were treated with Accutase (Millipore) to break clumps and then resuspended in fresh medium containing drug and treated for 12 hours. Three hours before harvest 10 μM Bromodeoxyuridine (BrdU) was added. Cells were then harvested and fixed in chilled 70% ethanol and left overnight. The next day cells were washed, resuspended in 200 μl of 2M HCl/Triton X (1%) and incubated for 30 mins at room temperature. Cells were then centrifuged at 2000 rpm for 10 mins and neutralized in 200 μl of 0.1M sodium tetraborate, pH 8.5 solution. Cells were then washed, suspended in 20 μl of PBS containing 0.5% tween20, 1% donkey serum and 2ul of anti-BrdU antibody (1:10 diution, BD Biosciences) and incubated overnight at 4° C. Cells were then washed and incubated with secondary antibody-anti mouse Alexa488 (1:1000) for 1 hour at room temperature. Cells were finally washed, suspended in PBS containing 100 μg/ml of RNase A, 50 μg/ml of PI (propidium iodide) and 0.05% Triton X and incubated for 30 mins at 37° C. in the dark. The cells were then subjected to FACS using the accuri C6 flow cytometer (UPCI shared resources).
Background: Dividing cells build labelled thymidine or BrdU into new DNA.

A further series relates to BJ cells. As to the kind of experiment: Trypan blue dye exclusion assay. The note with it: 48 h. The format is cell-based, human. How it is done:
(§1) Cells were equally seeded and treated with YM155 for 48 hours. To count blue stained dead cells, cells were treated with Accutase (Millipore), collected, resuspended in PBS, mixed with equal volume of Trypan blue (Lonza, 0.4%) and counted using a hemocytometer under the microscope. The counts were done in triplicate and the experiment was repeated three times.

The next series relates to UISO cells. Kind of series: Trypan blue dye exclusion assay. It is filed as cell-based, human. The following applies: 48 h. How it is done:
as §1

Series [2] has as its system human MKL-1 MCC xenografts. How it is done:
Compounds were dissolved in sterile 0.9% saline solution for administration to animals.
Six-week-old female triple immune-deficient NSG (Nod-SCID gamma) mice (Jackson Laboratory) were maintained in a specific pathogen-free environment.
(§2) MCC cells were checked for viability >90% by trypan blue staining, resuspended in PBS (2×10^7 cells in 100 μl) and inoculated subcutaneously into the right flank of mice.
(§3) All treatments were delivered for three consecutive weeks. […] YM-155 (2 mg/kg) was given intraperitoneally on five consecutive days, followed by a two-day treatment free interval.
Two-tailed paired Student's t test was used to analyze statistical differences in qRT-PCR results. Mouse survival curves were estimated using the Kaplan-Meier product-limit method and were compared using the log-rank test (GraphPad Software, La Jolla, Calif.). A piecewise linear hierarchical Bayesian model (Zhao et al., Bayesian hierarchical changepoint methods in modeling the tumor growth profiles in xenograft experiments. Clinical Cancer Res 17, 1057 (Mar. 1, 2011)) was used to characterize differences in tumor volumes and growth between treatments.
Cells of Merkel cell polyomavirus (+) carcinoma cell lines MKL-1, MS-1, WaGa, and MKL-2 were checked for viability >90% by trypan blue staining, resuspended in PBS (2×10^7 cells in 100 μl) and inoculated subcutaneously into the right flank of mice.
YM-155 was given intraperitoneally on five consecutive days, followed by a two-day treatment free interval. For YM155 this treatment continued for three weeks or until mice were euthanized. Mice were euthanized upon showing a tumor having a diameter of 20 mm, or upon a showing of significant distress (>20% weight loss or when they became moribund). Caliper measurements of the longest perpendicular tumor diameters were performed every other day and tumor volumes were calculated using the formula: (width)^2×(length/2). Survival was defined as time from the first day of treatment until death/sacrifice.

The subject of another series is survivin. As to the kind of experiment: qRT-PCR for survivin in xenograft tumor tissues. It is filed as in vivo, mice. The note with it: 2 mg/kg vs saline. In general terms: Real-time PCR tracks product formation cycle by cycle.
Series [3] concerns MKL-1 cells. Kind of series: Immunoblotting for cPARP, cCaspase 3 and LC3. The following applies: 100 nM, 48 hours. The format is cell-based, human. For orientation: Immunoblotting shows a protein as a band on a membrane.
The subject of series [4] is MKL-1 cells. As to the kind of experiment: Trypan blue dye exclusion assay. The note with it: for viability at 0.1 µM: Homo sapiens. How it is done:
as §1
MKL-1 cells were co-stained with CFDA (green, live) and PI (red, dead). In FIG. 4D, column graphs represent mean and range quantitations (using ImageJ) of % CFDA positive and % PI positive cells.

Series [5] has as its system MCV-negative MCC cell line. Kind of series: Cell-Titer Glo growth inhibition by YM155. The note with it: MCV-negative vs MCV-positive MCC cells. The format is cell-based, human. The protocol:
Serial drug dilutions from 10^−4 M to 10^−9 M were used on MCC and non-MCC cell lines. Cells were seeded into 384-well plates at 6000 cells in 50 μl of medium per well. After 24 hours, 25 μl of 3× drugs were added at increasing concentration to each well. Cell viability was then measured using Cell Titer Glo (Promega) kit following manufacturer's instructions as described previously. Each drug concentration was tested in triplicate for each cell line and experiments were repeated twice. EC50 doses for the drugs were calculated using a four parameter logistic equation (GraphPad Prism).

The test system of series [6] is MKL-1 cells. Kind of series: Cell death evaluation by CFDA and PI staining. It is filed as cell-based, human. The following applies: 100 nM. The protocol:
Upon harvesting cells are resuspended in 2 ml of PBS containing 4 μg/ml PI (propidium iodide, Sigma) and 10 μM Carboxy fluorescin diacetate (CFDA, Invitrogen) at room temperature for 10 mins. Cells were then rinsed in 1× PBS and then examined under the microscope. Quantitation was done using ImageJ software.

The subject of series [7] is MS-1 (MCV-positive) and UISO (MCV-negative) cell xenografts. Kind of series: MS-1 and UISO xenograft drug treatment. It is filed as in vivo, NSG mice. The following applies: end of three week treatment period; MS-1 and UISO xenografts. The protocol:
as §2, §3

Where [8] appears, read: three weeks treatment, bortezomib 1 mg/kg twice weekly, YM155 2 mg/kg 5 times weekly.

Procedure for survivin: Column represents mean and error bars represent standard deviation. Experiment was done in triplicate (Mean±SEM).
RNA was extracted from cell lysates using Trizol reagent (Invitrogen) and cDNA was synthesized using SuperScript III First Strand Synthesis (Invitrogen). Quantitative real-time PCR for survivin was performed on cDNA using the SYBR green method (based on manufacturer's protocol, Applied Biosystems). […] The relative change in expression was calculated using the Pffal method (Pfaffl, A new mathematical model for relative quantification in real-time RT-PCR. Nucleic Acids Research 29, e45 (May 1, 2001)). Experiments were repeated six times (2 biological repeats with 3 technical replicates each).

For the compound `COCCn1c2c([n+](Cc3cnccn3)c1C)C(=O)c1ccccc1C2=O.[Br-]` [YM155, 1-(2-methoxyethyl)-2-methyl-4,9-dioxo-3-(pyrazin-2-ylmethyl)-4,9-dihydro-1H-naphtho[2,3-d]imidazol-3-ium bromide], the BrdU incorporation entry in the series on MKL-1 cells [1] was “ablates BrdU incorporation in all phases of the cell cycle”. Also, the “cell killing, trypan blue vital dye exclusion” value with BJ cells was “resistant”; in the series with UISO cells it was “relatively less sensitive”; in the series on MKL-1 cells [4] (48 h, MKL-1), “dose-dependent cell killing”. Also, the “survival after initiation of treatment” value in [2] (Example 2, 2 mg/kg for three weeks) is on record as “almost two months”. Moreover, in [2] (Example 2, continuously at 4 mg/kg), the “survival after treatment began” value is given as “more than three months”. The “tumor growth after treatment was stopped” value in series [2] (after single 3-week course, 2 mg/kg) was “all tumors resumed growth once YM155 was stopped”. Besides, in [2] (bortezomib 1 mg/kg twice weekly, YM155 2 mg/kg 5 times weekly), the “tolerability / adverse effects in mice” value is “well-tolerated and no adverse effects or acute toxicities were noted”. Moreover, the “mice dying during treatment (up to day 19)” value in series [2] (setting [8]) was “none”. For the same compound, in series [2] (setting [8]), the “xenograft tumor growth / progression during treatment” value is reported as “markedly delayed MKL-1 xenograft growth”. In addition, in the series on survivin, the “survivin levels in xenograft tumors (qRT-PCR)” value is given as “Lower survivin levels”. The “LC3-II accumulation (marker for cell autophagy)” value with MKL-1 cells [3] is “did not initiate LC3-II accumulation”. Moreover, the “apoptosis measured by caspase 3 and PARP cleavage” value in the series with MKL-1 cells [3] is given as “No evidence of apoptosis”. In addition, the viability at 0.1 µM in the series on MKL-1 cells [4] (MKL-1, read-out: cells remaining viable at 48 hours, 100 nM for 3 hours, followed by wash out) came out at 51%; in the series with MKL-1 cells [4] (MKL-1, read-out: cells remaining viable at 48 hours, 100 nM for 6 hours, followed by wash out), 3%; with MKL-1 cells [4] (MKL-1, read-out: cells remaining viable at 48 hours, 100 nM for 12 hours, followed by wash out), 1.8%. Moreover, the “concentrations inhibiting MCV-negative MCC cell line growth, higher than for MCV-positive MCC cells” value in series [5] is listed as 1-2 orders of magnitude. Further, in the series on MKL-1 cells [6], the “time to initiation of programmed cell death (PI positive, CFDA negative)” value was 12 to 24 h. In addition, the “final tumor volumes, % (median) of saline-treated control mice” value in [7] is reported as 43-55%.
